According to patent publication US20130203709A1, “ACYLSULFONAMIDES AND PROCESSES FOR PRODUCING THE SAME” (priority 2010, published 2013):
Read-outs that look alike come from different tables or passages of the source.

Tests used:
Bcl-XL = Bcl-XL (Homo sapiens, UniProt Q07817); test: fluorescence polarization (FP) assay, disruption of the Bcl-XL/BH3 interaction; assay type: binding; conditions: for inhibition at 100 µM: read-out: % Inhibition Bcl-XL
Mcl-1 = Mcl-1 (Homo sapiens, UniProt Q07820); test: fluorescence polarization (FP) assay, disruption of the Mcl-1/BH3 interaction; assay type: binding; conditions: for inhibition at 100 µM: read-out: % Inhibition Mcl-1
[1] = reactive fragments (SZ, TA), 100 μM per FIG. 22 legend, FP assay

Chain of Bcl-XL (Q07817 whole entry): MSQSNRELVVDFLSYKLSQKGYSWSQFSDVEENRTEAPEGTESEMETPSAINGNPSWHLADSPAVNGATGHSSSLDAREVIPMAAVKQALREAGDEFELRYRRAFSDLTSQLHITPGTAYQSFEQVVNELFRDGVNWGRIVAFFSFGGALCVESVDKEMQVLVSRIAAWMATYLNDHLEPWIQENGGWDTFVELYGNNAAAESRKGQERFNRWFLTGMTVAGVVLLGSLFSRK
Chain of Mcl-1 (Q07820 whole entry, the tested form may be a part): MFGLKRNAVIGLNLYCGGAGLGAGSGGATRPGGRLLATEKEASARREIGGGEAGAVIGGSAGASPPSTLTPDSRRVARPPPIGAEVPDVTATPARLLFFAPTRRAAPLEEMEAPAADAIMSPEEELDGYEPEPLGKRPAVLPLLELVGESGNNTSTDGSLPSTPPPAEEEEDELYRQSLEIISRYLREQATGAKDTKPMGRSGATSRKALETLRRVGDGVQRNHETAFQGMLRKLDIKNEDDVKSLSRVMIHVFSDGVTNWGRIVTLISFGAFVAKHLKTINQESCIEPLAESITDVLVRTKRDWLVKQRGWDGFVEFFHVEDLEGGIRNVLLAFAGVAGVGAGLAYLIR

Row | Structure (SMILES) | inhibition at 100 µM (Bcl-XL; [1]) [%] | inhibition at 100 µM (Mcl-1; [1]) [%] | further results
1 | [N-]=[N+]=NS(=O)(=O)c1ccc(COc2ccc3c(=O)cc(-c4ccccc4)oc3c2)cc1 [SZ14] | 7.9 ± 5.8 | 2.1 ± 3.3 | 
2 | O=C(NS(=O)(=O)c1ccc(CN(CCSc2ccccc2)Cc2c(F)cccc2Cl)cc1)c1ccccc1 [SZ15TA1] |  |  | fold less active than SZ31TA2 (Mcl-1; Mcl-1 PPIM activity relative to SZ31TA2): approximately 10 fold
3 | [N-]=[N+]=NS(=O)(=O)c1ccc(CN(CCSc2ccccc2)Cc2c(F)cccc2Cl)cc1 [SZ15] | 10 ± 0.9 | 25.1 ± 0.7 | 
4 | [N-]=[N+]=NS(=O)(=O)c1ccc(-c2ccc(C(F)(F)F)cc2)cc1 [SZ16B] | 1.1 ± 1.2 | 1.3 ± 2.4 | 
5 | COc1cccc(CN(CCSc2ccccc2)Cc2ccc(S(=O)(=O)N=[N+]=[N-])cc2)c1 [SZ17] | 2.6 ± 7.8 | 4 ± 1.6 | 
6 | [N-]=[N+]=NS(=O)(=O)c1ccc(Cl)cc1 [SZ18] |  |  | % Inhibition Bcl-XL (Bcl-XL; [1]): <1%; % Inhibition Mcl-1 (Mcl-1; [1]): <1%
7 | COc1ccc(S(=O)(=O)N=[N+]=[N-])cc1 [SZ19] |  |  | % Inhibition Bcl-XL (Bcl-XL; [1]): <1%; % Inhibition Mcl-1 (Mcl-1; [1]): <1%
8 | Cc1ccccc1S(=O)(=O)N=[N+]=[N-] [SZ20] |  |  | % Inhibition Bcl-XL (Bcl-XL; [1]): 1.4 ± 1.6%; % Inhibition Mcl-1 (Mcl-1; [1]): 6.2 ± 2.1%
9 | CN(C)c1cccc2c(S(=O)(=O)N=[N+]=[N-])cccc12 [SZ21] | 1.1 | 49.3 ± 3.3 | 
10 | [N-]=[N+]=NS(=O)(=O)CCN1CCCC2CCCCC21 (stereo not shown) [SZ22] | < 1 | 1.2 ± 1.2 | 
11 | [N-]=[N+]=NS(=O)(=O)CCN1CCc2ccccc2C1 [SZ23] | 3.3 ± 2.1 | 3.6 ± 5.2 | 
12 | [N-]=[N+]=NS(=O)(=O)CCN1CCC(Cc2ccccc2)CC1 [SZ24] | < 1 | 2.7 ± 7.5 | 
13 | [N-]=[N+]=NS(=O)(=O)CCN1CCN(Cc2ccc3c(c2)OCO3)CC1 [SZ25] | < 1 | < 1 | 
14 | [N-]=[N+]=NS(=O)(=O)CCN(Cc1ccccc1)Cc1ccccc1 [SZ26] | < 1 | < 1 | 
15 | COc1cc2c(cc1OC)C(c1ccccc1)N(CCS(=O)(=O)N=[N+]=[N-])CC2 (stereo not shown) [SZ27] | 4 ± 0.1 | 13.9 ± 0.05 | 
16 | [N-]=[N+]=NS(=O)(=O)CCN(CCSc1ccccc1)Cc1ccc2c(c1)OCO2 [SZ28] | < 1 | < 1 | 
17 | [N-]=[N+]=NS(=O)(=O)c1ccc(NCc2ccc(Br)cc2)cc1 [SZ29] |  |  | inhibition at 100 µM (Bcl-XL): < 1%; inhibition at 100 µM (Mcl-1): 5.7 ± 4.6%
18 | CCN(CC)c1ccc(CNc2ccc(S(=O)(=O)N=[N+]=[N-])cc2)cc1 [SZ30] | < 1 | < 1 | 
19 | CC1(C)CCN(c2ccc(C(=O)NS(=O)(=O)c3ccc(CN(CSc4ccccc4)Cc4ccc5c(c4)OCO5)cc3)cc2)CC1 [SZ31TA2] |  |  | IC50 (Mcl-1; FP assay, read-out: IC50 against Mcl-1): 3.3 µM; ligand efficiency (Mcl-1; against Mcl-1): 0.159
20 | O=C(NS(=O)(=O)c1ccc(CN(CSc2ccccc2)Cc2ccc3c(c2)OCO3)cc1)c1ccc(OC(F)(F)F)cc1 [SZ31TA8] |  |  | selectivity index (Mcl-1; calculated, Mcl-1 over Bcl-XL): 19
21 | [N-]=[N+]=NS(=O)(=O)c1ccc(CN(CCSc2ccccc2)Cc2ccc3c(c2)OCO3)cc1 [SZ31] | < 1 | < 1 | 
22 | CC1(C)CCN(c2ccc(C(=O)O)cc2)CC1 [TA2] | < 1 | 6.8 ± 6.7 | 
23 | Cc1nc(-c2ccccc2)sc1C(=O)O [TA3] | < 1 | 1.4 ± 3.6 | 
24 | COc1cc2c(cc1OC)C(c1ccccc1)N(CC(=O)O)CC2 (stereo not shown) [TA4] | < 1 | 1.5 ± 0.7 | 
25 | COc1cc(OC)cc(C(=O)O)c1 [TA5] | < 1 | 1.3 ± 13.4 | 
26 | O=C(O)c1cccc([N+](=O)[O-])c1 [TA6] | < 1 | < 1 | 
27 | O=C(O)c1cccc2ccccc12 [TA7] | < 1 | 2.4 ± 6.8 | 
28 | O=C(O)c1ccc(OC(F)(F)F)cc1 [TA8] | 4 ± 1.2 | 3.6 ± 12.7 | 
29 | O=C(O)c1ccco1 [TA9] | < 1 | < 1 | 
30 | O=C(O)c1ccno1 [TA10] | 2 ± 1.7 | < 1 | 
